Assay results published in US4336389A, “2-Substituted-4-aryl-5-thiazolecarboxylic acids and their derivatives as safening agents” (Monsanto Company, priority 1978, dated 1982).
Where a name gives a salt, the structure may show the parent alone.

What was measured:
Type in all cases: in vivo
rice [1] = assay: Inhibition of rice, safening agent and butachlor applied to soil surface, flooded pots (Example 18, Table IV); settings: ~21 days, mean of two replicates
Experimental: (§1) 5.08 cm. of a good grade of top soil is placed in a 7.62 cm. deep plastic pot. A predetermined number of barnyard grass seeds are applied to the soil surface. A measured quantity of the safening agent and butachlor dispersed or dissolved in a suitable carrier is applied to the soil surface. Pre-soaked rice is seeded into the pots that were previously flooded with water. The water level is lowered below the soil surface for one week. The pots are flooded just above the soil surface for the duration of the test. The plants are observed at the end of approximately 21 days and the results in terms of percent inhibition recorded. For each test, pots are prepared containing soil treated only with butachlor. For each test, pots are prepared containing soil treated only with the safening agent. Pots are also prepared with untreated soil.

Barnyard Grass [2] = assay: Inhibition of barnyard grass, safening agent and butachlor applied to soil surface, flooded pots (Example 18, Table IV); settings: ~21 days, mean of two replicates
Experimental: as §1

rice [3] = assay: Safening effect against butachlor injury to rice, safening agent and herbicide incorporated in soil (Example 15, Table I); parameters: key: herbicide-alone + safener-alone effect (max 100) minus combined effect; settings: safening agent 8.96 kg/h, ~21 days
Experimental: (§2) A good grade of top soil is placed in a container and compacted to a depth of approximately 1.27 cm. from the top of said container. A predetermined number of rice seeds to be tested are placed on top of the soil. A quantity of soil sufficient to substantially fill the container is measured and placed in a second container. A measured quantity of the safening agent dispersed or dissolved in a suitable carrier is applied to the soil in the second container. A measured quantity of butachlor dispersed or dissolved in a suitable carrier is then sprayed on the soil already treated with the safening agent. The soil containing the safening agent and herbicide is thoroughly mixed. This mixing is sometimes referred to as incorporation of the herbicide and safening agent into the soil. The mixing or incorporation provides a substantially uniform distribution of the safening agent and herbicide throughout the soil. The seeds are covered with the soil containing the safening agent and herbicide and the pans are leveled. The pans are then placed on a sand bench in the greenhouse and watered from below as needed. The plants are observed at the end of approximately 21 days and the results in terms of percent inhibition of each seed lot are recorded. For each test series a pan of plants is also prepared containing no herbicide and no safening agent as a control. Additionally, for each test, a pan of plants is prepared with soil covering the seed containing no herbicide and only the measured amount of safening agent being incorporated into the soil covering the seeds to ascertain any herbicidal effect of the safening agent alone. For each series of tests the herbicidal effect of the herbicide is observed from pans of plants treated with the same quantity of herbicide alone. The "safening effect" is determined by adding the hericidal effect of the herbicide when applied alone to the herbicidal effect of the safening agent when applied alone (in no instance, however, will this sum be greater than 100) and substracting from that the herbicidal effect obtained when the herbicide and safening agent are incorporated into the soil as discussed above.
Table I summarizes the results obtained when the compounds of the invention were tested in accordance with the procedure of Example 15.

rice [4] = assay: Safening effect against butachlor injury to pre-soaked rice, soil surface application, flooded pots (Example 16, Table II); parameters: key: herbicide injury alone + safener injury alone (max 100) minus combined injury; settings: safening agent 0.56 kg/h, ~21 days, mean of two replicates
Experimental: as §2
A good grade of top soil is placed in a plastic pot. A measured quantity of the safening agent dispersed or dissolved in a suitable carrier is sprayed on the soil surface. A measured quantity of butachlor herbicide dissolved in a solvent is sprayed on the soil surface. Presoaked rice is seeded into the pots that were previously flooded with water and the water level lowered below the soil surface for one week. The pots are flooded at least up to the soil surface for the duration of the test. The plants are observed at the end of approximately 21 days and the results in terms of the percent inhibition of rice is recorded. As in Example 15, for each test pots are prepared containing soil treated only with butachlor. For each test, pots are also prepared containing soil treated only with the safening agent. Pots are also prepared in which the soil is not treated with either the herbicide or the safening agent. The safening effect is determined in accordance with Example 15.
Table II summarizes the results obtained when the compounds of the invention were tested in accordance with the procedure of Example 16.

rice [5] = assay: Inhibition of rice by butachlor and safening agent sprayed on soil surface, flooded pots (Example 17, Table III); settings: ~21 days, mean of two replicates
Experimental: as §1, with “agent” for “agent and butachlor”, “is sprayed on the soil surface. A measured quantity of butachlor herbicide dissolved in a solvent is sprayed on” for “is applied to”, “one week to allow barnyard grass to emerge.” for “one week.”, “prepared containing” for “prepared with”

Barnyard Grass [6] = assay: Inhibition of barnyard grass by butachlor and safening agent sprayed on soil surface, flooded pots (Example 17, Table III); settings: ~21 days, mean of two replicates
Experimental: as §1, with “agent” for “agent and butachlor”, “is sprayed on the soil surface. A measured quantity of butachlor herbicide dissolved in a solvent is sprayed on” for “is applied to”, “one week to allow barnyard grass to emerge.” for “one week.”, “prepared containing” for “prepared with”

[7] = safening agent 1.12 kg/h + butachlor 0.07 kg/h
[8] = safening agent 1.12 kg/h + butachlor 0.28 kg/h
[9] = safening agent 1.12 kg/h + butachlor 1.12 kg/h
[10] = safening agent 0.07 kg/h + butachlor 0.07 kg/h
[11] = safening agent 0.07 kg/h + butachlor 0.28 kg/h
[12] = safening agent 0.07 kg/h + butachlor 1.12 kg/h
[13] = safening agent 0.28 kg/h + butachlor 0.07 kg/h
[14] = safening agent 0.28 kg/h + butachlor 0.28 kg/h
[15] = safening agent 0.28 kg/h + butachlor 1.12 kg/h

With CCOC(=O)c1sc(Oc2ccc(Cl)cc2Cl)nc1-c1ccccc1 [Ethyl 2-(2',4'-dichlorophenoxy)-4-phenyl-5-thiazolecarboxylate] the “% Inhibition, Rice” value (rice [1]; [7]) was 15%, the “% Inhibition, Rice” value (rice [1]; [8]) was 88% and the “% Inhibition, Rice” value (rice [1]; [9]) was 99%. For the same molecule, the “% Inhibition, Rice” value (rice [1]; safening agent alone 1.12 kg/h) was 0%, the “% Inhibition, Barnyard Grass” value (Barnyard Grass [2]; [7]) was 83% and the “% Inhibition, Barnyard Grass” value (Barnyard Grass [2]; [8]) was 98%. The “% Inhibition, Barnyard Grass” value (Barnyard Grass [2]; [9]) was 100% and the “% Inhibition, Barnyard Grass” value (Barnyard Grass [2]; safening agent alone 1.12 kg/h) was 0%.
In the case of CCOC(=O)c1sc(Cl)nc1-c1cccc(C(F)(F)F)c1 [Example 2, Ethyl 2-Chloro-4-m-Trifluoromethylphenyl-5-thiazolecarboxylate], the “Safening Effect” value (rice [3]; butachlor 4.48 kg/h) is reported as 50, the “Safening Effect” value (rice [4]; butachlor 0.07 kg/h) is reported as 68 and the “Safening Effect” value (rice [4]; butachlor 0.28 kg/h) is reported as 26. The “Safening Effect” value (rice [4]; butachlor 1.12 kg/h) was “* (Safening effect between 0 and 20)”.
For CCOC(=O)c1sc(Cl)nc1-c1ccc(F)cc1 [Example 3, Ethyl 2-Chloro-4-(p-Fluorophenyl)-5-Thiazolecarboxylate], the “Inhibition, Rice” value (rice [5]; [10]) was 0%, the “Inhibition, Rice” value (rice [5]; [11]) was 5% and the “Inhibition, Rice” value (rice [5]; [12]) was 70%. The “Inhibition, Rice” value (rice [5]; [13]) was 0%, the “Inhibition, Rice” value (rice [5]; [14]) was 5% and the “Inhibition, Rice” value (rice [5]; [15]) was 58%. For the same molecule, the “Inhibition, Rice” value (rice [5]; [7]) was 0%, the “Inhibition, Rice” value (rice [5]; [8]) was 0% and the “Inhibition, Rice” value (rice [5]; [9]) was 43%. For the same molecule, the “Inhibition, Rice” value (rice [5]; safening agent alone 0.07 kg/h) was 0%, the “Inhibition, Rice” value (rice [5]; safening agent alone 0.28 kg/h) was 0% and the “Inhibition, Rice” value (rice [5]; safening agent alone 1.12 kg/h) was 0%. The “Safening Effect” value (rice [3]; butachlor 6.72 kg/h) was 65, the “Safening Effect” value (rice [4]; butachlor 0.07 kg/h) was 30 and the “Safening Effect” value (rice [4]; butachlor 0.28 kg/h) was 73. The “Safening Effect” value (rice [4]; butachlor 1.12 kg/h) was 62, the “Inhibition, Barnyard Grass” value (Barnyard Grass [6]; [10]) was 97% and the “Inhibition, Barnyard Grass” value (Barnyard Grass [6]; [11]) was 99%. The “Inhibition, Barnyard Grass” value (Barnyard Grass [6]; [12]) was 100%, the “Inhibition, Barnyard Grass” value (Barnyard Grass [6]; [13]) was 92% and the “Inhibition, Barnyard Grass” value (Barnyard Grass [6]; [14]) was 100%. For the same molecule, the “Inhibition, Barnyard Grass” value (Barnyard Grass [6]; [15]) was 100%, the “Inhibition, Barnyard Grass” value (Barnyard Grass [6]; [7]) was 92% and the “Inhibition, Barnyard Grass” value (Barnyard Grass [6]; [8]) was 100%. For the same molecule, the “Inhibition, Barnyard Grass” value (Barnyard Grass [6]; [9]) was 100%, the “Inhibition, Barnyard Grass” value (Barnyard Grass [6]; safening agent alone 0.07 kg/h) was 0% and the “Inhibition, Barnyard Grass” value (Barnyard Grass [6]; safening agent alone 0.28 kg/h) was 0%. The “Inhibition, Barnyard Grass” value (Barnyard Grass [6]; safening agent alone 1.12 kg/h) was 0%.
For CCOC(=O)c1sc(Cl)nc1-c1ccccc1Cl [Example 5, Ethyl 2-Chloro-4-(o-Chlorophenyl)-5-Thiazolecarboxylate], the “Safening Effect” value (rice [3]; butachlor 6.72 kg/h) was 65.
CCOC(=O)c1sc(Cl)nc1-c1cccc(C)c1 [Example 6, Ethyl 2-Chloro-4-(m-Tolyl)-5-Thiazolecarboxylate] was tested, and the “Safening Effect” value (rice [3]; butachlor 6.72 kg/h) was 65.
For CCOC(=O)c1sc(Cl)nc1-c1ccc([N+](=O)[O-])cc1 [Example 7, Ethyl 2-Chloro-4-(p-Nitrophenyl)-5Thiazolecarboxylate], the “Safening Effect” value (rice [3]; butachlor 4.48 kg/h) was 25, the “Safening Effect” value (rice [4]; butachlor 0.07 kg/h) was “* (Safening effect between 0 and 20)” and the “Safening Effect” value (rice [4]; butachlor 0.28 kg/h) was 38. For the same molecule, the “Safening Effect” value (rice [4]; butachlor 1.12 kg/h) was “* (Safening effect between 0 and 20)”.
For CCOC(=O)c1sc(OCC)nc1-c1ccccc1 [Example 8, Ethyl 2-Ethoxy-4-Phenyl-5-Thiazolecarboxylate], the “% Inhibition, Rice” value (rice [1]; [7]) was 30%, the “% Inhibition, Rice” value (rice [1]; [8]) was 88% and the “% Inhibition, Rice” value (rice [1]; [9]) was 95%. For the same molecule, the “% Inhibition, Rice” value (rice [1]; safening agent alone 1.12 kg/h) was 0%, the “% Inhibition, Barnyard Grass” value (Barnyard Grass [2]; [7]) was 100% and the “% Inhibition, Barnyard Grass” value (Barnyard Grass [2]; [8]) was 100%. The “% Inhibition, Barnyard Grass” value (Barnyard Grass [2]; [9]) was 100%, the “% Inhibition, Barnyard Grass” value (Barnyard Grass [2]; safening agent alone 1.12 kg/h) was 0% and the “Safening Effect” value (rice [3]; butachlor 4.48 kg/h) was 75.
For CCOC(=O)c1sc(OCC)nc1-c1cccc(C(F)(F)F)c1 [Example 9, Ethyl 2-Ethoxy-4-(m-Trifluoromethylphenyl)-5-Thiazolecarboxylate], the “Safening Effect” value (rice [3]; butachlor 4.48 kg/h) was 20.
For CCOC(=O)c1sc(Oc2ccc(Cl)cc2Cl)nc1-c1cccc(C(F)(F)F)c1 [Example 10, Ethyl 2-(2',4'-Dichlorophenoxy)-4-(m-Trifluoromethylphenyl)-5-Thiazolecarboxylate], the “Safening Effect” value (rice [3]; butachlor 4.48 kg/h) was 43, the “Safening Effect” value (rice [4]; butachlor 0.07 kg/h) was “* (Safening effect between 0 and 20)” and the “Safening Effect” value (rice [4]; butachlor 0.28 kg/h) was “* (Safening effect between 0 and 20)”. For the same molecule, the “Safening Effect” value (rice [4]; butachlor 1.12 kg/h) was “* (Safening effect between 0 and 20)”.
For O=C(O)c1sc(Cl)nc1-c1ccccc1 [Example 11, 2-Chloro-4-Phenyl-5-Thiazolecarboxylic Acid], the “Safening Effect” value (rice [3]; butachlor 4.48 kg/h) was 50, the “Safening Effect” value (rice [4]; butachlor 0.07 kg/h) was “* (Safening effect between 0 and 20)” and the “Safening Effect” value (rice [4]; butachlor 0.28 kg/h) was 63. The “Safening Effect” value (rice [4]; butachlor 1.12 kg/h) was 45.
O=C(Cl)c1sc(Cl)nc1-c1ccccc1 [Example 12, 2-Chloro-4-Phenyl-5-Thiazolecarbonyl Chloride] was tested, and the “Safening Effect” value (rice [3]; butachlor 4.48 kg/h) was 50, the “Safening Effect” value (rice [4]; butachlor 0.07 kg/h) was 35 and the “Safening Effect” value (rice [4]; butachlor 0.28 kg/h) was 80. The “Safening Effect” value (rice [4]; butachlor 1.12 kg/h) was 62.
With COC(=O)c1sc(Cl)nc1-c1ccccc1 [Example 13, Methyl 2-Chloro-4-Phenyl-5-Thiazolecarboxylate] the “Safening Effect” value (rice [3]; butachlor 4.48 kg/h) was 30.
CCCOC(=O)c1sc(Cl)nc1-c1ccccc1 [Example 14, n-Propyl 2-Chloro-4-Phenyl-5-Thiazolecarboxylate] was tested, and the “Safening Effect” value (rice [3]; butachlor 4.48 kg/h) was 20.
In the case of O=C(O)c1sc(Cl)nc1-c1ccccc1 [triethanolamine salt of 2-chloro-4-phenyl-5-thiazolecarboxylic acid], the “% Inhibition, Rice” value (rice [1]; [7]) is reported as 0%, the “% Inhibition, Rice” value (rice [1]; [8]) is reported as 20% and the “% Inhibition, Rice” value (rice [1]; [9]) is reported as 60%. For the same molecule, the “% Inhibition, Rice” value (rice [1]; safening agent alone 1.12 kg/h) was 0%, the “% Inhibition, Barnyard Grass” value (Barnyard Grass [2]; [7]) was 88% and the “% Inhibition, Barnyard Grass” value (Barnyard Grass [2]; [8]) was 99%. The “% Inhibition, Barnyard Grass” value (Barnyard Grass [2]; [9]) was 100% and the “% Inhibition, Barnyard Grass” value (Barnyard Grass [2]; safening agent alone 1.12 kg/h) was 0%.
